Test results: patent US20190389843A1, “PYRROLE mTORC INHIBITORS AND USES THEREOF” (Navitor Pharmaceuticals, Inc., priority 2016, published 2019)
Counter-ions that a name gives are not always drawn.

What was measured:
[1] = system: pAKT in MCF7 (measure of mTORC2 activity); test: AlphaLISA Ultra pAKT assay; type: cell-based; details: MCF-7 cells, 2 hours compound incubation
In short: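 MCF7 cells, 16,000-20,000 per well, treated with compound for 2 h at 0.5% final DMSO, then lysed. Phospho-AKT, as a readout of mTORC2 activity, measured by AlphaLISA Ultra with acceptor beads and then donor beads, 2 h each.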

[2] = system: pS6K1 in MCF7 (measure of mTORC1 activity); test: AlphaLISA Ultra pS6K1 assay; type: cell-based; details: MCF-7 cells, 2 hours compound incubation
In short: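 MCF7 cells, refreshed medium 2 h, treated with compound 2 h at 0.5% DMSO final, then lysed. Phospho-S6K1 in lysates detected by AlphaLISA Ultra (acceptor beads 2 h, donor beads 2 h), read as Alpha signal on a multimode reader.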

| SMILES | IC50 ([1]; Homo sapiens, MCF7, 2 h) [µM] | IC50 ([2]; Homo sapiens, MCF7, 2 h) [µM] | IC50 [1] [µM] | IC50 [2] [µM] |
| --- | --- | --- | --- | --- |
| Cc1c(CN2CCN(c3ccccc3Cl)CC2)cc(C(=O)N2CCN(c3cccc(F)c3C#N)C[C@@H]2C)n1C [Example I-102, (S)-2-(4-(4-((4-(2-chlorophenyl)piperazin-1-yl)methyl)-1,5-dimethyl-1H-pyrrole-2-carbonyl)-3-methylpiperazin-1-yl)-6-fluorobenzonitrile] | > 10 | 0.01 to 1 | – | – |
| Cc1c(CN2CCN(c3ccccc3Cl)CC2)cc(C(=O)N2CCN(c3cccc(F)c3)C[C@@H]2C)n1C [Example I-75, (S)-(4-((4-(2-chlorophenyl)piperazin-1-yl)methyl)-1,5-dimethyl-1H-pyrrol-2-yl)(4-(3-fluorophenyl)-2-methylpiperazin-1-yl)methanone 2,2,2-trifluoroacetate] | > 5 | 1 to 3 | – | – |
| Cc1c(CN2CCN(c3ccccc3Cl)CC2)cc(C(=O)N2CCN(c3cccc(Cl)c3)C[C@@H]2C)n1C [Example I-112, (S)-(4-(3-chlorophenyl)-2-methylpiperazin-1-yl)(4-((4-(2-chlorophenyl)piperazin-1-yl)methyl)-1,5-dimethyl-1H-pyrrol-2-yl)methanone] | > 3 | 0.01 to 1 | – | – |
| Cc1c(CN2CCN(c3ccccc3C#N)CC2)cc(C(=O)N2CCN(c3cc(Cl)ccn3)CC2)n1C [Example I-68] | > 1 | 0.01 to 1 | – | – |
| Cc1cccc(N2CCN(C(=O)c3cc(CN4CCN(c5ccccc5C#N)CC4)c(C)n3C)CC2)n1 [Example I-64] | > 3 | 0.01 to 1 | – | – |
| Cc1c(CN2CCN(c3ccccc3Cl)CC2)cc(C(=O)N2CCN(c3ccc(F)cc3)C[C@@H]2C)n1C [Example I-95, (S)-(4-((4-(2-chlorophenyl)piperazin-1-yl)methyl)-1,5-dimethyl-1H-pyrrol-2-yl)(4-(4-fluorophenyl)-2-methylpiperazin-1-yl)methanone] | > 3 | 0.01 to 1 | – | – |
| Cn1cc(CN2CCN(c3ccccc3Cl)CC2)cc1C(=O)N1CCN(c2cc(F)c(F)c(F)c2)CC1 [Example I-132, (4-((4-(2-Chlorophenyl)piperazin-1-yl)methyl)-1-methyl-1H-pyrrol-2-yl)(4-(3,4,5-trifluorophenyl)piperazin-1-yl)methanone trifluoroacetate salt] | > 10 | 3 to 10 | – | – |
| Cc1c(CN2CCN(c3ccccc3Cl)CC2)cc(C(=O)N2CCN(c3ccc4cc[nH]c4c3)C[C@@H]2C)n1C [Example I-34, (S)-(4-(1H-indol-6-yl)-2-methylpiperazin-1-yl)(4-((4-(2-chlorophenyl)piperazin-1-yl)methyl)-1,5-dimethyl-1H-pyrrol-2-yl)methanone trifluoroacetate salt] | > 10 | 1 to 3 | – | – |
| Cn1cc(CN2CCN(c3ccccc3Cl)CC2)cc1C(=O)N1CCN(c2ccccn2)CC1 [Example I-122] | > 1 | 0.01 to 1 | – | – |
| Cc1c(CN2CCN(c3ccccc3C#N)CC2)cc(C(=O)N2CCN(c3ccc(C#N)cc3)CC2)n1C [Example I-53] | > 10 | 1 to 3 | – | – |
| Cc1c(CN2CCN(c3ncccc3Cl)CC2)cc(C(=O)N2CCN(c3ccccn3)CC2)n1C [Example I-44] | – | – | > 3 | 0.01 to 1 |
| COCCn1cc(CN2CCN(c3ccccc3C(F)(F)F)CC2)cc1C(=O)N1CCN(c2ccccc2)CC1 [Example I-139] | > 10 | 3 to 10 | – | – |
| COCCn1cc(CN2CCN(c3ccccc3)CC2)cc1C(=O)N1CCN(c2ccccc2C#N)CC1 [Example I-149] | > 10 | 3 to 10 | – | – |
| CC(c1cc(C(=O)N2CCN(c3ccccc3)CC2)n(C)c1)N1CCN(c2ccccc2Cl)CC1 (centres unmarked) [Example I-106, 1-(2-Chlorophenyl)-4-{1-[1-methyl-5-(4-phenylpiperazine-1-carbonyl)-1H-pyrrol-3-yl]ethyl}piperazine] | > 3 | 1 to 3 | – | – |
| Cc1c(CN2CCN(c3ccccc3C#N)CC2)cc(C(=O)N2CCN(c3ccccn3)CC2)n1C [Example I-60] | > 3 | 0.01 to 1 | – | – |
| C[C@@H]1CN(Cc2cc(C(=O)N3CCN(c4ccc(F)cc4)CC3)n(C)c2)CCN1c1ccccc1Cl [Example I-103] | > 10 | 1 to 3 | – | – |
| Cc1c(CN2CCN(c3ncccc3Cl)CC2)cc(C(=O)N2CCN(c3ccccn3)CC2)n1C [Example I-2] | – | – | > 10 | 1 to 3 |

| SMILES | IC50 ([1]; Homo sapiens, MCF7, 2 h) [µM] | IC50 ([2]; Homo sapiens, MCF7, 2 h) [µM] | IC50 [1] [µM] | IC50 [2] [µM] |
| --- | --- | --- | --- | --- |
| Cc1c(CN2CCCN(c3ccccc3Cl)CC2)cc(C(=O)N2CCN(c3cccc(C#N)c3)C[C@@H]2C)n1C [Example I-41, (S)-3-(4-(4-((4-(2-chlorophenyl)-1,4-diazepan-1-yl)methyl)-1,5-dimethyl-1H-pyrrole-2-carbonyl)-3-methylpiperazin-1-yl)benzonitrile] | > 10 | 1 to 3 | – | – |
| Cc1c(CN2CCN(c3ccccc3Cl)CC2)cc(C(=O)N2CCN(c3cnccn3)C[C@@H]2C)n1C [Example I-51, (S)-(4-((4-(2-chlorophenyl)piperazin-1-yl)methyl)-1,5-dimethyl-1H-pyrrol-2-yl)(2-methyl-4-(pyrazin-2-yl)piperazin-1-yl)methanone] | > 10 | 0.01 to 1 | – | – |
| Cc1c(C(C)N2CCN(c3ccccc3Cl)CC2)cc(C(=O)N2CCN(c3ccc(F)cc3)C[C@@H]2C)n1C (stereo partly drawn) [Example I-46, (4-(1-(4-(2-Chlorophenyl)piperazin-1-yl)ethyl)-1,5-dimethyl-1H-pyrrol-2-yl)((S)-4-(4-fluorophenyl)-2-methylpiperazin-1-yl)methanone] | > 10 | 1 to 3 | – | – |
| Cc1c(CN2CCN(c3ccccc3N=[N+]=[N-])CC2)cc(C(=O)N2CCN(c3ccccc3)C[C@@H]2C)n1C [Example I-83, (S)-(4-((4-(2-azidophenyl)piperazin-1-yl)methyl)-1,5-dimethyl-1H-pyrrol-2-yl)(2-methyl-4-phenylpiperazin-1-yl)methanone] | > 10 | 1 to 3 | – | – |
| Cc1c(CN2C3CCC2CN(c2ccccc2C#N)C3)cc(C(=O)N2CCN(c3ccccn3)CC2)n1C [Example I-52, 2-(8-((1,2-dimethyl-5-(4-(pyridin-2-yl)piperazine-1-carbonyl)-1H-pyrrol-3-yl)methyl)-3,8-diazabicyclo[3.2.1]octan-3-yl)benzonitrile] | > 10 | 0.01 to 1 | – | – |
| Cn1cc(CN2CCC(Nc3ccccc3Cl)CC2)cc1C(=O)N1CCN(c2ccc(F)cc2)CC1 [Example I-130] | > 10 | 1 to 3 | – | – |
| COCCn1cc(CN2CCN(c3ccccc3Cl)CC2)cc1C(=O)N1CCN(c2ccc(F)cc2)CC1 [Example I-140] | > 10 | 1 to 3 | – | – |
| Cc1c(CN2CCN(c3ccccc3CCCN)CC2)cc(C(=O)N2CCN(c3ccccc3)C[C@@H]2C)n1C [Example I-24, (S)-(4-((4-(2-(3-aminopropyl)phenyl)piperazin-1-yl)methyl)-1,5-dimethyl-1H-pyrrol-2-yl)(2-methyl-4-phenylpiperazin-1-yl)methanone ditrifluoroacetate salt] | > 10 | 3 to 10 | – | – |
| Cc1c(CN2CCN(c3ccccc3Cl)CC2)cc(C(=O)N2CCN(c3ccc(F)c(Cl)c3)CC2)n1C [Example I-82, (4-(3-chloro-4-fluorophenyl)piperazin-1-yl)(4-((4-(2-chlorophenyl)piperazin-1-yl)methyl)-1,5-dimethyl-1H-pyrrol-2-yl)methanone] | > 10 | 1 to 3 | – | – |
| Cc1c(CN2CCN(c3ccccc3Cl)CC2)cc(C(=O)N2CCN(c3cc(F)c(F)c(F)c3)C[C@@H]2C)n1C [Example I-89, (S)-(4-((4-(2-Chlorophenyl)piperazin-1-yl)methyl)-1,5-dimethyl-1H-pyrrol-2-yl)(2-methyl-4-(3,4,5-trifluorophenyl)piperazin-1-yl)methanone] | > 10 | 3 to 10 | – | – |
| Cn1cc(CN2CCN(c3ccccc3C(F)(F)F)CC2)cc1C(=O)N1CCN(c2ccccc2)CC1 [Example I-126, 1-{[1-Methyl-5-(4-phenylpiperazine-1-carbonyl)-1H-pyrrol-3-yl]methyl}-4-[2-(trifluoromethyl)phenyl]piperazine] | > 10 | 3 to 10 | – | – |
| Cc1c(CN2CCN(c3ccccc3Cl)CC2)cc(C(=O)N2CCN(c3cccc(CCCN)c3)C[C@H]2C)n1C [Example I-27, (R)-(4-(3-(3-aminopropyl)phenyl)-2-methylpiperazin-1-yl)(4-((4-(2-chlorophenyl)piperazin-1-yl)methyl)-1,5-dimethyl-1H-pyrrol-2-yl)methanone trifluoroacetate salt] | > 10 | 1 to 3 | – | – |
| Cc1c(CN2CCN(c3ccccc3C#N)CC2)cc(C(=O)N2CCN(c3ncccc3C#N)CC2)n1C [Example I-56] | > 3 | 0.01 to 1 | – | – |
| Cc1c(CN2CCN(c3ccccc3Cl)CC2)cc(C(=O)N2CCN(c3cc(F)ccc3C#N)CC2)n1C [Example I-85, 2-(4-(4-((4-(2-Chlorophenyl)piperazin-1-yl)methyl)-1,5-dimethyl-1H-pyrrole-2-carbonyl)piperazin-1-yl)-4-fluorobenzonitrile] | > 3 | 0.01 to 1 | – | – |
| Cc1c(CN2CCCN(c3ccccc3Cl)CC2)cc(C(=O)N2CCN(c3ccc(F)cc3)C[C@@H]2C)n1C [Example I-47, (S)-(4-((4-(2-chlorophenyl)-1,4-diazepan-1-yl)methyl)-1,5-dimethyl-1H-pyrrol-2-yl)(4-(4-fluorophenyl)-2-methylpiperazin-1-yl)methanone] | > 10 | 1 to 3 | – | – |
| Cc1c(CN2CCN(c3ccccc3C#N)CC2)cc(C(=O)N2CCN(c3oc(C4CC4)nc3C#N)CC2)n1C [Example I-14] | > 10 | 0.01 to 1 | – | – |
| C[C@H]1CN(c2cc(F)cc(F)c2)CCN1C(=O)c1cc(CN2CCN(c3ccccc3Cl)CC2)cn1C [Example I-94, (S)-(4-((4-(2-chlorophenyl)piperazin-1-yl)methyl)-1-methyl-1H-pyrrol-2-yl)(4-(3,5-difluorophenyl)-2-methylpiperazin-1-yl)methanone] | > 5 | 0.01 to 1 | – | – |
